The record followed here is patent US9932355B2, “2,5,6,7-tetrasubstituted thiazolo[4,5-b]pyridine derivatives and use thereof” (KYUNGPOOK NATIONAL UNIVERSITY INDUSTRY-ACADEMIC COOPERATION …, priority 2014, dated 2018).

This experiment concerns CLP-induced sepsis mouse model. Description: Survival rate of CLP-induced sepsis mouse model. It is filed as in vivo. Particulars: male ICR mice, CLP surgery; tail intravenous injection 12 and 50 hours after surgery; FIG. 1. How it is done:
An anti-inflammation effect of the prepared compound was tested by a survival rate of the sepsis mouse model induced by peritonitis. A CLP-induced sepsis mouse model is an in vivo method for investigating an anti-inflammation action, and the manufacturing method of the mouse model is a widely used experiment method [Wang H, Nat. Med., 2004, 10, 1216-1221]. 40 six-week-old male ICR mice were divided into 10 mice per each group, and the survival rate was observed.
First, after the male mouse was anesthetized by respiration using isoflurane, the abdomen of the mouse was cut in the middle by approximately 2 cm to take out an appendix adjacent to intestines, and the appendix was tied up at a part apart from 0.5 mm from the end of the appendix with a 3.0-silk suture, pierced once with a 22-gauge needle, and sutured the cut part with a 4.0 silk suture. An abdomen of a sham mouse was cut and sutured without tie-up or piercing of the appendix, and after 12 and 50 hours of the surgery, the prepared compound was administered by mouse tail intravenous injection.

For `COc1ccc(CNc2nc3nc4c(c(-c5ccc(OC)cc5)c3s2)CCCC4)cc1` [Compound 1-65, N-(4-methoxybenzyl)-9-(4-methoxyphenyl)-5,6,7,8-tetrahydrothiazolo[4,5-b]quinoline-2-amine], the “survival rate increased, compared to the only CLP-treated group” value stood at 60%.
